Measurements reported in publication PMC6895912 (Cancers, 2019).
Entries after “also recorded” stand apart in the source; their conditions may differ.

Columns and labels:
[1] = system: CWR-R1, CWR-R1 (10E), CWR-R1-MTX20nM cells; assay: Colony formation (clonogenicity) assay; format: cell-based, human; conditions: parental CWR-R1 and drug-resistant counterparts, 14 days
Text: (A) Comparative GI50 values of Gal, NGGAs, and enzalutamide (ENZ) in drug-naïve-/-resistant prostate cancer cells. (B) Gal and NGGAs induce G1 cell cycle arrest in LNCaP cells. (C) VNPP414 and VNPP433-3β deplete the cell cycle regulator, cyclin D1, and upregulate p21; “+” indicates specific treatments. (D) Gal cause dose-dependent depletion of cyclin D1. (E) Unlike ENZ, Gal and VNPP433-3β inhibit colony formation of drug-naïve/-resistant cells in vitro. 1000 cells/well (CWR-R1, CWR-R1 (10E), CWR-R1-MTX20nM), seeded in 6-well plates were treated with indicated concentrations of compounds for a period of 14 days. Media containing compounds were replaced every 3 days. Colonies were stained with 0.05% crystal violet. (F) Quantification of colony formation units (CFU) in drug-naive/resistant cells. Colony assays were repeated three times and colonies counted in four quadrants of the wells. Results are represented as averages with S.E.M. (* p < 0.05, ** p < 0.001). Note: the numbers in parentheses in Figure 2B,C,E are concentrations of the agents in µM.
0.1 × 10^3 cells per well were seeded in 6-well plates and allowed to attach overnight (16 h), cells were treated with compounds in regular media (RPMI with 10% FBS) at the indicated concentrations and replaced every 3rd day for 14 days or until visible colonies could be counted. Colonies were washed and stained with 0.05% crystal violet for 30 min. Colonies were scanned and quantified (colonies counted in four quadrants of each well) with ImageJ colony counter. Results are represented as the mean of triplicates.

[2] = system: CWR22Rv1 xenografts; assay: Antitumor efficacy in castration-resistant CWR22Rv1 xenograft model; format: in vivo, male NOD SCID mice; conditions: 25 mg/kg PO once daily, 16 days; listed as ENZ
Procedure: Following the in vitro studies and determination of the PK parameters, we then investigated the relative efficacy. Gal and the NGGAs in vivo using difficult-to-treat castration-resistant CWR22Rv1 xenografts. Given the enhanced IP and PO PK parameters of VNPP414 and VNPP433-3β over Gal, we decided to use lower doses of the new analogs compared to the previous Gal doses (200 mg/kg, IP/PO). Gal (200 mg/kg) served as positive control, while ENZ (25 mg/kg) administered PO was used as negative control. Male NOD SCID mice bearing CWR22Rv1 tumors were treated with vehicle, ENZ, Gal, VNPP414, and VNPP433-3β for 16 days as described in the Methods and Materials Section. […] In contrast, Gal and the NGGAs caused statistically significant tumor growth inhibition (TGI). […] It is notable that VNPP433-3β (at 7.5- and 15-fold lower molar doses) and VNPP414 (at 4-fold lower molar dose) are more efficacious than Gal. In general, no host toxicities were observed, as monitored by changes in animal body weight (Figure 7C).
Figure 7 Effects of Gal, NGGAs and ENZ in an in vivo castration-resistant prostate cancer model. (A) Mice bearing CWR22Rv1 xenografts (5 mice per group) were treated with vehicle, Gal (100 mg/kg/twice daily), VNPP414 (60 mg/kg, once daily), VNPP433-3β (15 or 30 mg/kg, once daily) and ENZ (25 mg.kg, once daily) 5 days per week for 16 days. Tumor volumes were measured twice a week and the tumors were collected. Tumor growth inhibition (TGI) values are indicated at the right of each growth curve, and the error bars are the SEM. Results are represented as means ± SEM. ^# p = ns (not significant vs. vehicle), ^$ p < 0.0272 vs. vehicle, * p < 0.0035 vs. vehicle, ** p < 0.0025 vs. vehicle and *** p < 0.0008 vs. vehicle. (B) Photographed tumors from each group. (C) Mean body weights of mice determined during the study. (D) Western blot analyses of tumor samples from each experimental group at day 16. […] It is left out because vehicle is a control, not a substance.
Male NOD SCID mice 5–6 weeks of age were obtained from University of Maryland School of Medicine Veterinary Resources (Baltimore, MD, USA. Mice were housed under complete aseptic conditions, fed autoclaved pellets and sterile water ad libitum. Following a week of acclimatization, approximately 5 × 10^6 CWR22Rv1 cells were inoculated one flank f mice. Tumor-bearing mice (tumor volume around ~100 mm^3) were randomized into 6 groups (5 mice in each group; compounds formulated in vehicle) and treated as follows: (i) vehicle control (40% β-cyclodextrin in saline, PO.), (ii) ENZ (25 mg/kg, PO, once daily), (iii) Gal (100mg/kg, PO, twice daily), (iv) VNPP414 (60 mg/kg, PO, once daily), (v) VNPP433-3β (15 mg/kg, PO, once daily), and (vi) VNPP433-3β (30 mg/kg, PO, once daily) for 5 days/week. Tumors were measured twice weekly with calipers and tumor volume was calculated by the formula: length × width^2 × 0.5 (mm^3). Animals were also weighed weekly and monitored for general health status and signs of possible toxicity due to treatments. Mice were sacrificed after the indicated periods of treatment and tumors excised. Tumors were divided and either flash frozen in liquid nitrogen or placed in 10% buffered formalin for western blot analysis.

## CNC(=O)c1ccc(N2C(=S)N(c3ccc(C#N)c(C(F)(F)F)c3)C(=O)C2(C)C)cc1F [Enzalutamide, reference compound]
[1]
  inhibition of colony formation: ineffective at the concentrations tested
[2]
  tumor volume versus vehicle-treated control (in words): ineffective; also recorded: no statistically significant difference
